SMILES strings stand for the structures.

The text below walks through data of US20240150293A1, “SPIROCYCLOHEXANE DERIVATIVES, PHARMACEUTICAL COMPOSITIONS CONTAINING THEM AND THEIR USES AS ANTI-APOPTOTIC INHIBITORS” (LES LABORATOIRES SERVIER, priority 2021, published 2024).

For test [1], the target named is Cy5-labelled Mcl1 (amino acids 171-321) C286S protein (UniProtKB Q07820) (Homo sapiens (Human), UniProt Q07820, C286S). Description: Inhibition of Mcl-1 by the fluorescence quenching assay (Example A, Method B). Format: binding. In short, it runs like this:
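Cy5-labelled Mcl1 171-321 C286S (1 nM) quenched by TQ5WS-labelled PUMA peptide (10, 20 or 400 nM); displacement raises fluorescence (Ex 620/Em 680 nm). Buffer 10 mM HEPES, 150 mM NaCl, 0.05% Tween 20, pH 7.4, 5% DMSO; 2 h at room temperature, 11-point curves, IC50 converted to Ki (cKi/eKi).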

In test [2] the test system is H929 multiple myeloma tumor line. Description: In vitro cytotoxicity, MTT assay (Example B, Method A). Format: cell-based. To be noted: Homo sapiens, NCI-H929, 48 h, H929 cells, 48 hours exposure, read-out: C50. As for the experimental part: The cytotoxicity studies were carried out on the H929 multiple myeloma tumor line.
The cells are distributed onto microplates and exposed to the test compounds for 48 hours. The cell viability is then quantified by a colorimetric assay, the Microculture Tetrazolium Assay (Carmichael et al, Cancer Res. 1987, 47, 939-942).
The results are expressed in C50 which means concentration corresponding to […] of effect/inhibition.
(Formazan colour is commonly taken as a measure of viable cells.)

Chain of Cy5-labelled Mcl1 (amino acids 171-321) C286S protein (Q07820 171-321 C286S): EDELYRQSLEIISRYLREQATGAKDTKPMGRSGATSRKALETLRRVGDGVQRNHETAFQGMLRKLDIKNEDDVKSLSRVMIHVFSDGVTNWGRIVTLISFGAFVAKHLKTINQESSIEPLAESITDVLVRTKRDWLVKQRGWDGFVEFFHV

One may read the Ki as the equilibrium dissociation constant of an inhibitor or competing ligand from its target. As to `CC(O)c1ccc2c(c1)[C@]1(CC[C@@](Nc3cccc(Cl)c3)(C(=O)O)CC1)[C@@H](C[C@@H](C)COc1ccnc3ccsc13)C2` (stereo partly drawn) [Example 722, (1r,2′S,4S)-4-(3-chloroanilino)-6′-(1-hydroxyethyl)-2′-{(2R)-2-methyl-3-[(thieno[3,2-b]pyridin-7-yl)oxy]propyl}-2′,3′-dihydrospiro[cyclohexane-1,1′-indene]-4-carboxylic acid], the Ki in test [1] stood at 0.349 nM. For the same compound, the IC50 in test [2] amounted to 244 nM.

As to `COCCOc1ccc2c(c1)[C@]1(CC[C@@](Nc3cccc(Cl)c3)(C(=O)O)CC1)[C@H](C[C@@H](C)COc1ccnc3ccsc13)C2` [Example 729, (1r,2′R,4R)-4-(3-chloroanilino)-6′-(2-methoxyethoxy)-2′-{(2R)-2-methyl-3-[(thieno[3,2-b]pyridin-7-yl)oxy]propyl}-2′,3′-dihydrospiro[cyclohexane-1,1′-indene]-4-carboxylic acid], in test [1], the Ki was found to be 7.68 nM. In addition, in test [2], the IC50 came to 864 nM.

For `COCCOc1ccc2c(c1)[C@]1(CC[C@@](Nc3cccc(Cl)c3)(C(=O)O)CC1)[C@@H](C[C@@H](C)COc1ccnc3ccsc13)C2` [Example 730, (1r,2′S,4S)-4-(3-chloroanilino)-6′-(2-methoxyethoxy)-2′-{(2R)-2-methyl-3-[(thieno[3,2-b]pyridin-7-yl)oxy]propyl}-2′,3′-dihydrospiro[cyclohexane-1,1′-indene]-4-carboxylic acid], in test [1], the Ki amounted to 2.1 nM. Further, the IC50 in test [2] turned out to be 210 nM.

For the compound `Cc1cc2c(cc1C)[C@]1(CC[C@@](Nc3cccc(Cl)c3)(C(=O)O)CC1)[C@@H](C[C@@H](C)COc1ccnc3ccsc13)C2` [Example 733, (1r,2′S,4S)-4-(3-chloroanilino)-5′,6′-dimethyl-2′-{(2R)-2-methyl-3-[(thieno[3,2-b]pyridin-7-yl)oxy]propyl}-2′,3′-dihydrospiro[cyclohexane-1,1′-indene]-4-carboxylic acid], in test [1], the Ki stood at 1.52 nM. Moreover, the IC50 in test [2] was found to be 211 nM.

With `Cc1cc2c(cc1C)[C@]1(CC[C@@](Nc3cccc(Cl)c3)(C(=O)O)CC1)[C@H](C[C@@H](C)COc1ccnc3ccsc13)C2` [Example 734, (1r,2′R,4R)-4-(3-chloroanilino)-5′,6′-dimethyl-2′-{(2R)-2-methyl-3-[(thieno[3,2-b]pyridin-7-yl)oxy]propyl}-2′,3′-dihydrospiro[cyclohexane-1,1′-indene]-4-carboxylic acid], the inhibition constant (Ki) in test [1] worked out at 1.98 nM. Moreover, the IC50 in test [2] came out at 194 nM.

As for `C[C@@H](COc1ccnc2ccsc12)C[C@H]1Cc2ccc(F)cc2[C@]12CC[C@@](Nc1cccc(Cl)c1)(C(=O)O)CC2` [Example 735, (1r,2′S,4S)-4-(3-chloroanilino)-6′-fluoro-2′-{(2R)-2-methyl-3-[(thieno[3,2-b]pyridin-7-yl)oxy]propyl}-2′,3′-dihydrospiro[cyclohexane-1,1′-indene]-4-carboxylic acid], in test [1], the Ki is 2.55 nM. In test [2], the IC50 was found to be 433 nM.

As for `C[C@@H](COc1ccnc2ccsc12)C[C@@H]1Cc2ccc(F)cc2[C@]12CC[C@@](Nc1cccc(Cl)c1)(C(=O)O)CC2` [Example 736, (1r,2′R,4R)-4-(3-chloroanilino)-6′-fluoro-2′-{(2R)-2-methyl-3-[(thieno[3,2-b]pyridin-7-yl)oxy]propyl}-2′,3′-dihydrospiro[cyclohexane-1,1′-indene]-4-carboxylic acid], in test [1], the inhibition constant (Ki) is 5.19 nM. Besides, in test [2], the IC50 was determined as 1220 nM.

On to `C[C@@H](COc1ccnc2ccsc12)C[C@H]1Cc2cc(F)ccc2[C@]12CC[C@@](Nc1cccc(Cl)c1)(C(=O)O)CC2` [Example 737, (1r,2′S,4S)-4-(3-chloroanilino)-5′-fluoro-2′-{(2R)-2-methyl-3-[(thieno[3,2-b]pyridin-7-yl)oxy]propyl}-2′,3′-dihydrospiro[cyclohexane-1,1′-indene]-4-carboxylic acid], for which the Ki in test [1] turned out to be 0.932 nM. The IC50 in test [2] came out at 191 nM.

As to `C[C@@H](COc1ccnc2ccsc12)C[C@@H]1Cc2cc(F)ccc2[C@]12CC[C@@](Nc1cccc(Cl)c1)(C(=O)O)CC2` [Example 738, (1r,2′R,4R)-4-(3-chloroanilino)-5′-fluoro-2′-{(2R)-2-methyl-3-[(thieno[3,2-b]pyridin-7-yl)oxy]propyl}-2′,3′-dihydrospiro[cyclohexane-1,1′-indene]-4-carboxylic acid], the inhibitory constant (Ki) in test [1] was found to be 7.4 nM. In test [2], the IC50 came to 468 nM.

For the compound `C[C@@H](COc1ccnc2c1[C@H](C)CCC2)CC1=Cc2c(Cl)cccc2[C@]12CC[C@@](Nc1cccc(Cl)c1)(C(=O)O)CC2` [Example 739, (1r,4R)-4′-chloro-4-(3-chloroanilino)-2′-[(2R)-2-methyl-3-{[(5R)-5-methyl-5,6,7,8-tetrahydroquinolin-4-yl]oxy}propyl]spiro[cyclohexane-1,1′-indene]-4-carboxylic acid], the Ki in test [1] was found to be 1.5 nM. Moreover, the IC50 in test [2] stood at 87.2 nM.

For `C[C@@H](COc1ccnc2c1[C@H](C)CCC2)CC1=Cc2c(F)c(F)ccc2[C@]12CC[C@@](Nc1cccc(Cl)c1)(C(=O)O)CC2` [Example 744, (1r,4R)-4-(3-chloroanilino)-4′,5′-difluoro-2′-[(2R)-2-methyl-3-{[(5R)-5-methyl-5,6,7,8-tetrahydroquinolin-4-yl]oxy}propyl]spiro[cyclohexane-1,1′-indene]-4-carboxylic acid], in test [1], the Ki worked out at 0.342 nM. Also, in test [2], the IC50 stood at 65.2 nM.

In the case of `C[C@@H](COc1ccnc2c1[C@H](C)CCC2)CC1=Cc2c(Cl)c(F)ccc2[C@]12CC[C@@](Nc1cccc(Cl)c1)(C(=O)O)CC2` [Example 745, (1r,4R)-4′-chloro-4-(3-chloroanilino)-5′-fluoro-2′-[(2R)-2-methyl-3-{[(5R)-5-methyl-5,6,7,8-tetrahydroquinolin-4-yl]oxy}propyl]spiro[cyclohexane-1,1′-indene]-4-carboxylic acid], the Ki in test [1] came out at 1.58 nM. The IC50 in test [2] was determined as 66.4 nM.

As to `Cc1cccc2c1C=C(C[C@@H](C)COc1ccnc3c1[C@H](C)CCC3)[C@]21CC[C@](Nc2cccc(Cl)c2)(C(=O)O)CC1` [Example 753, (1r,4R)-4-(3-chloroanilino)-4′-methyl-2′-[(2R)-2-methyl-3-{[(5R)-5-methyl-5,6,7,8-tetrahydroquinolin-4-yl]oxy}propyl]spiro[cyclohexane-1,1′-indene]-4-carboxylic acid], in test [1], the Ki turned out to be 3.22 nM. Further, in test [2], the IC50 stood at 111 nM.

Turning to `CC(=O)c1cc(C)c2c(c1)[C@]1(CC[C@@](Nc3cccc(Cl)c3)(C(=O)O)CC1)C(C[C@@H](C)COc1ccnc3c1[C@H](C)CCC3)=C2` [Example 756, (1r,4R)-6′-acetyl-4-(3-chloroanilino)-4′-methyl-2′-[(2R)-2-methyl-3-{[(5R)-5-methyl-5,6,7,8-tetrahydroquinolin-4-yl]oxy}propyl]spiro[cyclohexane-1,1′-indene]-4-carboxylic acid], the Ki in test [1] was determined as 1.01 nM. In addition, the IC50 in test [2] is 62 nM.

In the case of `C[C@@H](COc1ccnc2c1[C@@H](C)CCC2)C[C@H]1Cc2cccc(F)c2[C@]12CC[C@@](Nc1cccc(Cl)c1)(C(=O)O)CC2` [Example 762, (1r,2′S,4S)-4-(3-chloroanilino)-7′-fluoro-2′-[(2R)-2-methyl-3-{[(5S)-5-methyl-5,6,7,8-tetrahydroquinolin-4-yl]oxy}propyl]-2′,3′-dihydrospiro[cyclohexane-1,1′-indene]-4-carboxylic acid], in test [1], the Ki turned out to be 12.1 nM. Also, the IC50 in test [2] turned out to be 390 nM.

`C[C@@H](COc1ccnc2c1[C@H](C)CCC2)C[C@H]1Cc2ccc(F)cc2[C@]12CC[C@@](Nc1cccc(Cl)c1)(C(=O)O)CC2` [Example 765, (1r,2′S,4S)-4-(3-chloroanilino)-6′-fluoro-2′-[(2R)-2-methyl-3-{[(5R)-5-methyl-5,6,7,8-tetrahydroquinolin-4-yl]oxy}propyl]-2′,3′-dihydrospiro[cyclohexane-1,1′-indene]-4-carboxylic acid]: the Ki in test [1] worked out at 0.661 nM. The IC50 in test [2] is 210 nM.

Regarding `C[C@@H](COc1ccnc2c1[C@H](C)CCC2)C[C@@H]1Cc2ccc(F)cc2[C@]12CC[C@@](Nc1cccc(Cl)c1)(C(=O)O)CC2` [Example 766, (1r,2′R,4R)-4-(3-chloroanilino)-6′-fluoro-2′-[(2R)-2-methyl-3-{[(5R)-5-methyl-5,6,7,8-tetrahydroquinolin-4-yl]oxy}propyl]-2′,3′-dihydrospiro[cyclohexane-1,1′-indene]-4-carboxylic acid], the inhibition constant (Ki) in test [1] came out at 2.3 nM. Moreover, the IC50 in test [2] came out at 384 nM.

As to `C[C@@H](COc1ccnc2c1[C@H](C)CCC2)CC1=Cc2cc(F)ccc2[C@]12CC[C@@](Nc1cccc(Cl)c1)(C(=O)O)CC2` [Example 767, (1r,4R)-4-(3-chloroanilino)-5′-fluoro-2′-[(2R)-2-methyl-3-{[(5R)-5-methyl-5,6,7,8-tetrahydroquinolin-4-yl]oxy}propyl]spiro[cyclohexane-1,1′-indene]-4-carboxylic acid], the inhibitory constant (Ki) in test [1] was found to be 0.305 nM. Moreover, the IC50 in test [2] is 78.8 nM.

`C[C@@H](COc1ccnc2c1[C@H](C)CCC2)C[C@@H]1Cc2cc(F)ccc2[C@]12CC[C@@](Nc1cccc(Cl)c1)(C(=O)O)CC2` [Example 769, (1r,2′R,4R)-4-(3-chloroanilino)-5′-fluoro-2′-[(2R)-2-methyl-3-{[(5R)-5-methyl-5,6,7,8-tetrahydroquinolin-4-yl]oxy}propyl]-2′,3′-dihydrospiro[cyclohexane-1,1′-indene]-4-carboxylic acid]: in test [1], the inhibition constant (Ki) was found to be 1.52 nM. Moreover, in test [2], the IC50 amounted to 125 nM.
